Data on one compound can be found in patent US12234216B2, “Isotopologues salts, crystalline forms, stereoisomers, of methylone and ethylone and methods of use thereof” (Terran Biosciences Inc., priority 2021, dated 2025).

Where a name gives a salt, the structure may show the parent alone.

Series [1] is described as follows: Dynamic vapor sorption (DVS). The class given is physicochemical.
Series [2] is described as follows: Plasma and brain concentration at the end of the zero maze study. Format: in vivo, rat. The following applies: terminal samples after 5, 15, 30 mg/kg ip; FIG. 68 and FIG. 69. The procedure:
Terminal sampling. At the end of the study, terminal blood was collected from 2 of the vehicle treated rats (>5 mL) and from all methylone HCl treated rats (500 uL) by CP under CO2. Blood samples were placed into Eppendorf tubes on ice containing 22 μL/mL blood (vehicle treated) or 11 μL EDTA (93 mg/mL) (Methylone HCl treated rats) and gently mixed. After no longer than 30 min, blood samples were centrifuged at 10,000 rpm×3 min and plasma samples (>2 mL (vehicle) or 2×100 μL (Methylone HCl treated) placed into Eppendorf tubes (Vehicle) or 96 well plates on dry ice. Immediately after blood sampling, brains were excised, rinsed in saline, blotted, weighed and snap-frozen in liquid N2. All samples were stored at −20° C. until dispatched on dry ice for analysis.
Terminal sampling. At the end of the study, terminal blood was collected from 2 of the vehicle treated rats (>5 mL) and from all S-methylone HCl treated rats (500 uL) by CP under CO2. Blood samples were placed into Eppendorf tubes on ice containing 22 μL/mL blood (vehicle treated) or 11 μL EDTA (93 mg/mL) (S-methylone HCl treated rats) and gently mixed. […]

Another series deals with Male Sprague-Dawley rats. Nature of the series: Rat elevated zero-maze model of anxiety. The class given is in vivo. From the text: The rat zero-maze model is a refined alternative to the plus-maze, the most widely used animal model of anxiety, and consists of an elevated annular platform, divided equally into four quadrants. Two opposite quadrants are enclosed by Perspex walls on both the inner and the outer edges of the platform, while the remaining two opposite quadrants are open being enclosed only by a Perspex “lip”. Animals will show a preference for the closed areas, and avoidance of the open sections is assumed to stem from a rodent's natural aversion to open, exposed spaces. The primary index of anxiety, which reflect changes in open arm preference, is the percentage of time spent on the open areas. A reduction in the amount of activity on the open areas is considered to reflect an increase in anxiety. Other, ethologically-based behaviours are also assessed as indices of anxiety. One of the most important is stretched attend postures (SAP) from closed to open quadrants. […] Shepherd, J K; et al., (1994) Behavioural and pharmacological validation of the elevated “zero-maze” as an animal model of anxiety. Psychopharmacol., 116:56-64.
Male Sprague-Dawley 200-250 g (Envigo UK) rats were used. Animals were group-housed (5 per cage; cage size: 40×40×20 cm) in a temperature-controlled environment (22±2° C.), under a 12 h light-dark cycle (lights on: 08:00 hours) for one week prior to testing. Food and water were freely available. Number of animals per group=5. Animals were moved into the experimental room 16-24 hours before testing.
The elevated 0-maze comprises a black Perspex annular platform (105 cm diameter, 10 cm width) elevated to 65 cm above ground level, divided equally into four quadrants. Two opposite quadrants are enclosed by clear red Perspex walls (27 cm high) on both the inner and outer edges of the platform, while the remaining two opposite quadrants are surrounded only by a Perspex “lip” (1 cm high) which serves as a tactile guide to animals on these open areas.
Subjects were weighed and tail marked before being injected. After a specified pre-treatment time, subjects were placed in a closed quadrant and a 5-min test period were recorded on videotape for subsequent analysis. The maze were cleaned with 5% methanol/water solution and dried thoroughly between test sessions. Behavioural measures comprise percentage time spent on the open areas (% TO) and frequency of stretched attend postures (SAP) from closed to open quadrants. Since the control groups were all treated identically with the same vehicle these were combined to increase power. The Chlordiazepoxide groups were also treated identically with the same dose so these were also combined to increase power. Animals are scored as being in the open area when all four paws were in an open quadrant and in the closed area only when all four paws have passed over the open-closed divide. All testing were carried out between 9.00 and 16.00 hours.
For each study, a 1-way ANOVA was conducted across vehicle, CDP, and drug treatment groups. Each group was compared to the vehicle group and a p-value for treatment determined by Fishers Least Significant Difference (LSD) test. This analysis was performed in GraphPad Prism (Version 9). Formulations: […]
Intraperitoneal (IP): Racemic methylone HCl was formulated in Vehicle 1 (Saline) for injection to concentrations of 1, 3 and 6 mg/mL to provide doses of 5, 15 and 30 mg/kg when administered ip in 5 mL/kg dosing volumes.
Intraperitoneal (IP): S-methylone HCl was formulated in Vehicle 1 (Saline) for injection to concentrations of 0.5, 1, 1.5, 3 and 6 mg/mL to provide doses of 2.5, 5, 7.5, 15 and 30 mg/kg when administered ip in 5 mL/kg dosing volumes.
Intraperitoneal (IP): R-methylone HCl was formulated in Vehicle 1 (Saline) for injection to concentrations of 1, 3 and 6 mg/mL to provide doses of 5, 15 and 30 mg/kg when administered ip in 5 mL/kg dosing volumes. […]

On to `CNC(C)C(=O)c1ccc2c(c1)OCO2` (racemic) [(rac)-Methylone Hydrochloride, 3,4-methylenedioxy-N-methylcathinone hydrochloride], for which the “relative humidity above which water uptake is seen” value in series [1] (DVS (FIG. 26)) is recorded as “above 75 % RH”. Also, the “physical stability after the moisture sorption-desorption analysis” value in series [1] (between 5% RH and 95% RH) is “physically stable”. Besides, the “behaviour of the material on humidity exposure” value in series [1] (exposed to 75% RH for 2 hours) is “became tacky and stuck to the vial”. The “concentration in plasma and brain” value in series [2] is “increased in both brain and plasma at the higher doses”. Moreover, the “overall effect on anxiety” value in the series on Male Sprague-Dawley rats (5 mg/kg ip) is “anxiogenic effect”; in the series with Male Sprague-Dawley rats (15 mg/kg ip) it was “mixed anxiogenic anxiolytic effect”. Besides, the “time spent in the open arms” value with Male Sprague-Dawley rats (5 mg/kg ip, vs placebo) is on record as “decrease in time spent in the open arms vs placebo”; with Male Sprague-Dawley rats (15 mg/kg ip, vs placebo) it was “no difference from placebo in time spent in the open arms”; in the series on Male Sprague-Dawley rats (30 mg/kg ip), “significant decrease in time spent in the open arms”. Further, the “frequency of SAPs” value with Male Sprague-Dawley rats (15 mg/kg ip) is recorded as “dose dependent decrease in SAPs”; in the series on Male Sprague-Dawley rats (30 mg/kg ip) it was “decrease in SAPs”; in the series with Male Sprague-Dawley rats (specific doses, ip, 30 min pretest, vs chlordiazepoxide 6 mg/kg, FIGS. 65-67) it was “decreased the frequency of SAPs as effectively as the benzodiazepine chlordiazepoxide”. In addition, the “decrease in SAPs compared with chlordiazepoxide” value in the series with Male Sprague-Dawley rats (15 mg/kg ip vs chlordiazepoxide 6 mg/kg ip) is listed as “not as effective as chlordiazepoxide”. Moreover, the “anxiolytic effects compared with chlordiazepoxide” value with Male Sprague-Dawley rats (high dose level) is given as “anxiolytic effects as effective as chlordiazepoxide”. Besides, in the series on Male Sprague-Dawley rats (lower doses, ip), the “anxiogenic effects at lower doses” value is given as “anxiogenic effects at lower doses”. Besides, the “time in the open arms” value in the series with Male Sprague-Dawley rats (specific doses, ip, 30 min pretest, FIGS. 62-64) is given as “increase time in the open arms”.
